Assay [1] has as its target T1, BCAT2 (Homo sapiens, UniProt O15382).
T1 sequence (O15382 28-392): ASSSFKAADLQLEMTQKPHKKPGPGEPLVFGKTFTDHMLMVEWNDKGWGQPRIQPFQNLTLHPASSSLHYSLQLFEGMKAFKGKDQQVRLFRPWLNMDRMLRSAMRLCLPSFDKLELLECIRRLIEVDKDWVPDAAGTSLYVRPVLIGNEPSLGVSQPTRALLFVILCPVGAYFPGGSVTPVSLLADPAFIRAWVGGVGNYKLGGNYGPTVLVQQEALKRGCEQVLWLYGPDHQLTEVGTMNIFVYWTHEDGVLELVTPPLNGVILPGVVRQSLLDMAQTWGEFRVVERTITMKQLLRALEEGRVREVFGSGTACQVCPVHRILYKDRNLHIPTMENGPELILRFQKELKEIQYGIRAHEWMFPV
Kind of assay: BCAT2 in vitro enzyme inhibition assay (resazurin/diaphorase-coupled fluorescence). It is filed as biochemical. Particulars: average where tested multiple times. Summed up: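 Coupled fluorescence readout: glutamate formed from L-leucine/α-ketoglutarate transamination drives GDH/NAD/diaphorase reduction of resazurin (Ex 540/Em 590). Human BCAT2 was first exposed 1 h at room temperature to compound, top final 100 μM in 3-fold, 10-point series; substrate reaction ran 1 h before SDS quench, in technical duplicate with DMSO max and enzyme-free min controls.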
In general terms: The colour change of resazurin is a common sign of viable cells or microbes.

The target of assay [2] is T1, BCAT2. The assay can be described thus: BCAT2 in vitro cell inhibition using engineered A549 cells (KMV cell assay, 13C6-KMV by LC-MS/MS). It is filed as cell-based. Further details: The result was an engineered A549 cell line that expressed endogenous BCAT2; endogenous in cells; host or cells: A549 cells with MUT and BCAT1 knocked out by CRISPR/CAS9; key to BCAT2 Cell Inhibition: A: less than or equal to 0.100 μM; B: greater than 0.100 and less than or equal to 0.500 μM; C: greater than 0.500 and less than or equal to 1.000 μM; d: greater than 1.000 μM; E: no fit. Particulars: average where tested multiple times.

The values that follow come from US20260159512A1, “BCAT2 INHIBITORS” (AGIOS PHARMACEUTICALS, INC., priority 2021, published 2026).

One may read the IC50 as the midpoint of a concentration-inhibition curve.

On to `CC(=O)N[C@@H](c1nc2cnc(-c3nc[nH]n3)cc2n1[C@@H]1CCC[C@H](NC(=O)c2ncc(Cl)s2)C1)C(C)C` [Example 369, N-((1S,3R)-3-(2-((R)-1-acetamido-2-methylpropyl)-6-(1H-1,2,4-triazol-3-yl)-1H-imidazo[4,5-c]pyridin-1-yl)cyclohexyl)-5-chlorothiazole-2-carboxamide], for which the IC50 in assay [1] was in the range of 500 to 1000 nM. Moreover, the “BCAT2 Cell Inhibition” value in assay [2] was “E”.
The corresponding values for `COC(=O)N[C@H](c1nc2cnc(-c3nc[nH]n3)cc2n1[C@@H]1CCC[C@H](NC(=O)c2ncc(Cl)s2)C1)C(C)C` [Example 370, methyl ((S)-1-(1-((1R,3S)-3-(5-chlorothiazole-2-carboxamido)cyclohexyl)-6-(1H-1,2,4-triazol-3-yl)-1H-imidazo[4,5-c]pyridin-2-yl)-2-methylpropyl)carbamate] are more than 1000 nM and “E”.
In turn, `COC(=O)N[C@@H](c1nc2cnc(-c3nc[nH]n3)cc2n1[C@@H]1CCC[C@H](NC(=O)c2ncc(Cl)s2)C1)C(C)C` [Example 371, methyl ((R)-1-(1-((1R,3S)-3-(5-chlorothiazole-2-carboxamido)cyclohexyl)-6-(1H-1,2,4-triazol-3-yl)-1H-imidazo[4,5-c]pyridin-2-yl)-2-methylpropyl)carbamate] came in with an IC50 in assay [1] of more than 1000 nM. Besides, in assay [2], the “BCAT2 Cell Inhibition” value was “E”.
Take `CCn1c(CO)nn(-c2cc3c(cn2)nc(CC(C)C)n3[C@@H]2CCC[C@H](NC(=O)c3ccc(Cl)s3)C2)c1=O` [Example 373, 5-chloro-N-((1S,3R)-3-(6-(4-ethyl-3-(hydroxymethyl)-5-oxo-4,5-dihydro-1H-1,2,4-triazol-1-yl)-2-isobutyl-1H-imidazo[4,5-c]pyridin-1-yl)cyclohexyl)thiophene-2-carboxamide]: the IC50 in assay [1] was not above 100 nM; in assay [2] it was more than 1000 nM.
Turning to `O=C(N[C@H]1CCC[C@@H](n2c(-c3ccccc3F)nc3cnc(-c4ncnn4C(F)F)cc32)C1)c1ncc(Cl)s1` [Example 376, 5-chloro-N-((1S,3R)-3-(6-(1-(difluoromethyl)-1H-1,2,4-triazol-5-yl)-2-(2-fluorophenyl)-1H-imidazo[4,5-c]pyridin-1-yl)cyclohexyl)thiazole-2-carboxamide], the IC50 in assay [1] fell in the range of 500 to 1000 nM. Besides, in assay [2], the “BCAT2 Cell Inhibition” value is on record as “E”.
`O=C(N[C@H]1CCC[C@@H](n2c(-c3ccccc3F)nc3cnc(-c4nncn4C(F)F)cc32)C1)c1ncc(Cl)s1` [Example 377, 5-chloro-N-((1S,3R)-3-(6-(4-(difluoromethyl)-4H-1,2,4-triazol-3-yl)-2-(2-fluorophenyl)-1H-imidazo[4,5-c]pyridin-1-yl)cyclohexyl)thiazole-2-carboxamide]: the IC50 in assay [1] was 500 to 1000 nM; in assay [2], more than 1000 nM.
As to `CC(C)(C)Cc1nc2cnc(-n3nccn3)cc2n1[C@H]1CCC[C@@H](NC(=O)c2ccc(Cl)s2)[C@@H]1O` [Example 388, 5-chloro-N-((1R,2S,3S)-2-hydroxy-3-(2-neopentyl-6-(2H-1,2,3-triazol-2-yl)-1H-imidazo[4,5-c]pyridin-1-yl)cyclohexyl)thiophene-2-carboxamide], in assay [1], the IC50 was more than 1000 nM. For the same compound, the “BCAT2 Cell Inhibition” value in assay [2] was “E”.
Turning to `CC(C)(C)Cc1nc2cnc(-c3ccccn3)cc2n1[C@H]1CCC[C@@H](NC(=O)c2ncc(Cl)s2)[C@@H]1O` [Example 390, 5-chloro-N-((1R,2S,3S)-2-hydroxy-3-(2-neopentyl-6-(pyridin-2-yl)-1H-imidazo[4,5-c]pyridin-1-yl)cyclohexyl)thiazole-2-carboxamide], the IC50 is 100 to 500 nM in assay [1] and more than 1000 nM in assay [2].
In assay [1], `CC(C)Cc1nc2cnc(-c3cccc(C#N)n3)cc2n1[C@H]1CCC[C@@H](NC(=O)c2ncc(Cl)s2)[C@@H]1O` [Example 391, 5-chloro-N-((1R,2S,3S)-3-(6-(6-cyanopyridin-2-yl)-2-isobutyl-1H-imidazo[4,5-c]pyridin-1-yl)-2-hydroxycyclohexyl)thiazole-2-carboxamide] had an IC50 of more than 1000 nM. The “BCAT2 Cell Inhibition” value in assay [2] is recorded as “E”.
